Laboratory results: patent publication US7470683B2, “Tetracyclic compounds” (Les Laboratoires Servier, priority 2006, dated 2008)
Each block holds one compound with its values, some of them ahead of it.

What was measured:
[1] = target: T1, human dopamine D2 receptor (Homo sapiens, UniProt P14416); assay: Human D2 receptor binding study ([125I]-iodosulpride, CHO cell membranes); settings: [125I]-iodosulpride 0.1 nM, read-out: pKi hD2 (converted)
T1 construct: expressed in transfected cells; membranes
Description: (§1) CHO (Chinese Hamster Ovary) cells are stably transfected with the gene encoding the human dopamine D2 or D3 receptor, in accordance with methods known from the literature. The native cells are deficient in the enzyme DHFR (DiHydroFolate Reductase). […] The transfections are carried out using Lipofectin (Gibco). The CHO cells co-transfected with the human D2 receptor and the phleomycin resistance gene are selected for their resistance to the presence of that antibiotic in the culture medium. The cells transfected with the human D3 receptor are selected, in a medium lacking hypoxanthine/thymidine, in the presence of methotrexate. The compositions of the culture media used are: for CHO-D2, DMEM (Dulbecco's Modified Eagle Medium) supplemented with 10% foetal calf serum and hypoxanthine/thymidine; and for CHO-D3, DMEM supplemented with 10% dialysed foetal calf serum. The cells are harvested at confluence and the membranes are then prepared.
After a few minutes in the presence of 0.2% trypsin, the cells are collected and centrifuged at 2,000 g for 5 minutes. The cell mass, which is re-suspended in 10 mM Tris-HCl buffer pH 7.5 containing 5 mM MgSO4, is then homogenised using a Polytron®. The homogenate is then centrifuged at 50,000 g for 15 minutes, and the sediment is re-suspended by gentle sonication in an incubation buffer having the composition: 50 mM Tris-HCl pH 7.5 containing 120 mM NaCl, 5 mM KCl, 2 mM CaCl2, 5 mM MgCl2. The membranes are then divided into aliquots and stored at −80° C. until the day of the experiment.
The concentration ranges of each compound include at least seven points determined in triplicate. Each experiment is repeated at least twice.
The incubation, which lasts for thirty minutes at 30° C., is terminated by rapid filtering through a Brandle apparatus, followed by three consecutive rinsings with Tris-HCl buffer pH 7.4 containing 120 mM NaCl. The filters are collected and then subjected to counting using a gamma counter.
The results are expressed in the form of pKi (pKi=−logKi).

[2] = target: T2, human dopamine D3 receptor (Homo sapiens, UniProt P35462); assay: Human D3 receptor binding study ([125I]-iodosulpride, CHO cell membranes); settings: [125I]-iodosulpride 0.2 nM, read-out: pKi hD3 (converted)
T2 construct: expressed in transfected cells; membranes
Description: as §1
After a few minutes in the presence of 0.2% trypsin, the cells are collected and centrifuged at 2,000 g for 5 minutes. The cell mass, which is re-suspended in 10 mM Tris-HCl buffer pH 7.5 containing 5 mM MgSO4, is then homogenised using a Polytron®. […]
The concentration ranges of each compound include at least seven points determined in triplicate. […]

[3] = test system: presynaptic dopaminergic autoreceptor; assay: Presynaptic dopaminergic autoreceptor activation: unitary extracellular electrical activity in the ventral tegmentum area of the rat; format: in vivo; settings: cumulative doses, relative to basal activity = 100%, mean ± s.e.m., n = 5
Description: Test Recording the Unitary Extracellular Electrical Activity in the Ventral Tegmentum Area of the Rat
Administration of a dopaminergic agonist decreases neuron discharge frequency in dose-dependent manner. This effect is reversed by haloperidol, a dopaminergic antagonist.
The rats are anaesthetised using chloral hydrate (400 mg/kg, i.p.) and placed in a stereotactic apparatus (Unimécanique, France) after catheterisation of the femoral vein. The level of anaesthesia is maintained by i.p. administration of chloral hydrate every hour; rectal temperature is held at 37±1° C. by means of a thermostatically controlled heated blanket. A tungsten microelectrode (10 MΩ, 1 μm) is advanced, using an electronic microdrive (Unimécanique, France), into the ventral tegmentum area (AP: −5.5/bregma; L: 0.7; H: 7.0-8.5/dura; Paxinos and Watson atlas, 1986). The potentials of dopaminergic cells are recognised by their morphology (triphasic potentials +/−/+, of a duration greater than 3 msec), their discharge rhythm, whether regular or in bursts of decreasing amplitude, and their discharge frequency, which is from 2 to 8 Hz. A single cell per animal is used for recording.
After a period ≧5 minutes (basal activity) and an initial injection of carrier (distilled water to which a few drops of dilute lactic acid have been added; pH adjusted to 5 using 1N NaOH), the products of the invention are administered intravenously in cumulatively increasing doses at intervals of 2-3 minutes.
Data acquisition is performed by the Spike2 software package (Cambridge Electronic Design, England). The discharge frequency is measured over one minute at the maximum change between each injection and is expressed as the percentage change with respect to the basal activity (averaged over the 5 minutes preceding the first treatment), which is defined as 100%. The effect of the products is statistically evaluated by analysis of variance over repeated measurements, followed by a Dunnett's test for comparison of the effects of different doses with the effect of the carrier (distilled water).

rat [4] = assay: Forced swimming test in the rat (antidepressive properties); format: in vivo; settings: for Immobility (sec) mean ± s.e.m.: 30 min before 5-min test, carrier 174.3 ± 9.1
Description: The forced swimming test (Porsolt R. et al, Eur. J. Pharmacol., 1978, 47, 379-91) is a behavioural test which comprises inducing a state of “despair” in the rat, by placing the naive animal in an enclosure full of water, from which it cannot escape, for a period of fifteen minutes. For the first five to ten minutes, the rat struggles vigorously but finally adopts an immobile posture during the last part of the test. Placed in the same enclosure on the following day, the animal remains immobile for most of the test (5 minutes' duration). Antidepressants reduce the duration of immobility of the rat during the test.
The experiment is carried out over two days, with a 24-hour interval, on rats having an average weight of 170 g, housed the day before in individual cages, with free access to food and drink.
On the first day, each rat is placed for fifteen minutes in a glass cylinder (20 cm diameter×40 cm high) filled to a height of 15 cm with water maintained at 25° C. On the second day, the animal is again placed in a cylinder for a period of five minutes; the total period of immobility (in seconds) of the rat is measured. The product or the solvent is administered to the animal thirty minutes before the beginning of the test. The effect of the products is statistically evaluated by analysis of variance over repeated measurements, followed by a Dunnett's test for comparison of the effects of different doses with the effect of the carrier (distilled water).

rat [5] = assay: Ultrasonic vocalisation test in the rat (anxiolytic properties); format: in vivo; settings: for Duration of ultrasonic vocalisations (s) mean ± s.e.m.: ten-minute recording, carrier 254.3 ± 42.1
Description: When a rat is placed in an environment previously associated with an unpleasant experience (electric shocks to the paws), its anxiety is shown by the emission of inaudible cries (or ultrasonic vocalisations).
Standard boxes (Coulbourn Instruments), placed in sound-attenuating ventilated enclosures, are provided with a floor composed of electrifiable metal bars (shock generator and scrambler, Med Associates Inc) and with a microphone located in the centre of the ceiling. The ultrasounds are converted into an audible range (bat detector, Buitenbedrijf). The signals modified in that manner are filtered and then processed (RTS software, Engineering Design). The spectrograms obtained are recorded on DAT tapes.
Male rats of the Wistar strain, weighing 180-200 g on their arrival, are housed in cages of four with free access to food and water, from five days before the start of the study until its end. The procedure employed is divided up into three successive stages separated by 24 hours and called training, selection and test. During the training session, the animals are placed singly in the boxes, where they receive six electric shocks (0.8 mA, 8 s) randomly spaced over a period of seven minutes. Selection comprises placing each animal in a box for two minutes, where they receive a single shock, and putting them back in the box thirty minutes later for a ten-minute session of recording the ultrasonic vocalisations; those animals whose vocalisations last less than 90 seconds are excluded from the remainder of the experiment. The test phase proceeds in a similar manner to the selection stage, with the products or the carrier additionally being administered at the end of the two-minute session. The effect of the products is statistically evaluated by analysis of variance over repeated measurements, followed by a Dunnett's test for comparison of the effects of different doses with the effect of the carrier (distilled water).

[6] = test system: rats having a unilateral lesion of the Substantia nigra; assay: Rotations induced by dopaminergic agonists in rats having a unilateral 6-OH-DA lesion of the Substantia nigra; format: in vivo, rat; settings: for Contralateral rotations mean ± s.e.m.: recorded for one hour, carrier 53.8 ± 12.8

T1 sequence (P14416 whole entry): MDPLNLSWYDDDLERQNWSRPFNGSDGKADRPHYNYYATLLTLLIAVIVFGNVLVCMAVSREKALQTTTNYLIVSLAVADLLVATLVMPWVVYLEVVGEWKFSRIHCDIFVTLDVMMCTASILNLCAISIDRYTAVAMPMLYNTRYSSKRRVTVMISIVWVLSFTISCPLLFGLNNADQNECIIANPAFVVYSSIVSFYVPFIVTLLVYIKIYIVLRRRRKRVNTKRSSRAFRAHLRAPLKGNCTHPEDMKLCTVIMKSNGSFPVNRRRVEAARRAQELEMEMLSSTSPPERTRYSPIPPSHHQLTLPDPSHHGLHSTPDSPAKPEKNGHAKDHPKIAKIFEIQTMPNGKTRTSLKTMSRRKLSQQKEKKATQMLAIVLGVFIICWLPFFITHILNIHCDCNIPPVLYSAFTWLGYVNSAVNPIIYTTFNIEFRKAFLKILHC
T2 sequence (P35462 whole entry): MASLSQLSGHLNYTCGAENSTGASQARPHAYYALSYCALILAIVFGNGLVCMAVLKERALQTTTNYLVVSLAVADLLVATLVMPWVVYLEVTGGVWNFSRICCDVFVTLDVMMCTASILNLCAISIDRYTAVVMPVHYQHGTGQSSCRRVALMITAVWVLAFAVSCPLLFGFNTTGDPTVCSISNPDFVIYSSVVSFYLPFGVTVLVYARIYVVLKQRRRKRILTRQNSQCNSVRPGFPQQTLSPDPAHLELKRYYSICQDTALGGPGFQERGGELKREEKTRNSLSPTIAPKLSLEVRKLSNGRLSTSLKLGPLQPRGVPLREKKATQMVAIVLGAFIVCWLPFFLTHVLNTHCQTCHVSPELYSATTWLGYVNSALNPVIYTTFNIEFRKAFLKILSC

Ki [1]: 1580 nM
Ki [2]: 126 nM
Structure (SMILES): CCCN1CCO[C@@H]2c3cc4c(cc3CC[C@H]21)CCOC4=O [Example 5, (4aR,12bR)-4-Propyl-3,4,4a,5,6,8,9,12b-octahydro-2H,11H-pyrano-[4′,3′:6,7]naphtho[1,2-b][1,4]oxazin-11-one]

Ki [1]: 794 nM
Structure (SMILES): CCCN1CCO[C@@H]2c3cc4c(cc3CC[C@H]21)CCNC4=O [Example 6, (4aR,12bR)-4-Propyl-2,3,4,4a,5,6,8,9,10,12b-decahydro-11H-isoquino-[6,7-h][1,4]benzoxazin-11-one]

More lines, now with the values behind:

Structure (SMILES): CCCN1CCO[C@@H]2c3cc4c(=O)[nH]ccc4cc3CC[C@H]21 [Example 8, (4aR,12bR)-4-Propyl-2,3,4,4a,5,6,10,12b-octahydro-11H-isoquino-[6,7-h][1,4]benzoxazin-11-one]
Ki [1]: 1260 nM

Structure (SMILES): CCCN1CCO[C@@H]2c3cc4c(cc3CC[C@H]21)CNC4=O (single isomer, unassigned) [Example 2]
Neuron discharge frequency ([3]; 0.125 μg/kg i.v.): 91.8 ± 5.2%
Neuron discharge frequency ([3]; 0.25 μg/kg i.v.): 79.9 ± 5.9 %
Neuron discharge frequency ([3]; 0.5 μg/kg i.v.): 66.3 ± 5.9 %
Neuron discharge frequency ([3]; 1.0 μg/kg i.v.): 42.0 ± 7.3 %
Neuron discharge frequency ([3]; 2.0 μg/kg i.v.): 10.8 ± 8.7 %
Neuron discharge frequency ([3]; 4.0 μg/kg i.v.): 2.3 ± 2.3 %
Neuron discharge frequency ([3]; 8.0 μg/kg i.v.): 0.0 ± 0.0 %
Immobility (sec) mean ± s.e.m. (rat [4]; 0.02 mg/kg s.c.): 159.4 ± 7.9 s
Immobility (sec) mean ± s.e.m. (rat [4]; 0.04 mg/kg s.c.): 122.7 ± 21.2 s
Immobility (sec) mean ± s.e.m. (rat [4]; 0.08 mg/kg s.c.): 22.03 ± 5.8 s
Effect on period of immobility (in words) (rat [4]; s.c., rat): reduces the period of immobility of the animal in dose-dependent manner
Duration of ultrasonic vocalisations (s) mean ± s.e.m. (rat [5]; 0.0025 mg/kg s.c.): 274.0 ± 59.0 s
Duration of ultrasonic vocalisations (s) mean ± s.e.m. (rat [5]; 0.04 mg/kg s.c.): 28.0 ± 5.6 s
Duration of ultrasonic vocalisations (s) mean ± s.e.m. (rat [5]; 0.63 mg/kg s.c.): 22.0 ± 3.2 s
Effect on duration of vocalisations (in words) (rat [5]; doses of 0.04 and 0.63 mg/kg s.c.): substantial reduction in the duration of vocalisations
Contralateral rotations mean ± s.e.m. ([6]; 0.00063 mg/kg s.c.): 157.4 ± 32.1
Contralateral rotations mean ± s.e.m. ([6]; 0.0025 mg/kg s.c.): 337.3 ± 48.3
Contralateral rotations mean ± s.e.m. ([6]; 0.01 mg/kg s.c.): 553.8 ± 138.3
Dose from which the product is active in the rotation test ([6]; s.c.): ≥ 2.5 µg/kg

Structure (SMILES): CCCN1CCO[C@@H]2c3cc4c(cc3CC[C@H]21)COC4=O [Example 4, (4aR,11bR)-4-Propyl-2,3,4,4a,5,6,8,11b-octahydro-10H-furo[3′,4′:6,7]-naphtho[1,2-b][1,4]oxazin-10-one]
Ki [1]: 2000 nM

Structure (SMILES): CN1CCc2cccc3c2[C@H]1Cc1ccc(O)c(O)c1-3 [Apomorphine, apomorphine, reference compound]
Contralateral rotations mean ± s.e.m. ([6]; 0.02 mg/kg s.c.): 497.2 ± 91.4
